Assay results as given in ChEMBL document CHEMBL1139888, “Fungicidal activities of dihydroferulic acid alkyl ester analogues” (2007).
≈ marks a conversion by molar mass, not a printed value.

How the values were obtained:
Format in all cases: functional
Saccharomyces cerevisiae [1] = assay: Growth inhibition of wild type Saccharomyces cerevisiae BY47411 at 5 mM after 48 hrs relative to control
Saccharomyces cerevisiae [2] = assay: Antifungal activity against wild type Saccharomyces cerevisiae BY47411 after 24 hrs
Saccharomyces cerevisiae [3] = assay: Growth inhibition of wild type Saccharomyces cerevisiae BY47411 at 6.4 mM after 48 hrs relative to control
Saccharomyces cerevisiae [4] = assay: Growth inhibition of wild type Saccharomyces cerevisiae BY47411 at 0.8 mM after 48 hrs relative to control
Saccharomyces cerevisiae [5] = assay: Growth inhibition of wild type Saccharomyces cerevisiae BY47411 at 1.6 mM after 48 hrs relative to control
Saccharomyces cerevisiae [6] = assay: Growth inhibition of wild type Saccharomyces cerevisiae BY47411 at 3.2 mM after 48 hrs relative to control
Saccharomyces cerevisiae [7] = assay: Antifungal activity against wild type Saccharomyces cerevisiae BY47411 assessed as cell number at 0.8 mM after 48 hrs
Saccharomyces cerevisiae [8] = assay: Antifungal activity against wild type Saccharomyces cerevisiae BY47411 assessed as cell number at 1.6 mM after 48 hrs
Saccharomyces cerevisiae [9] = assay: Antifungal activity against wild type Saccharomyces cerevisiae BY47411 assessed as cell number at 3.2 mM after 48 hrs
Saccharomyces cerevisiae [10] = assay: Antifungal activity against wild type Saccharomyces cerevisiae BY47411 assessed as cell number at 6.4 mM after 48 hrs
Saccharomyces cerevisiae [11] = assay: (§1) Growth inhibition of Saccharomyces cerevisiae bck1delta deletion mutant at 3.2 mM relative to control after 48 hrs
Saccharomyces cerevisiae [12] = assay: as §1; remark: listed apart in the source
Aspergillus fumigatus [13] = assay: Antifungal activity against Aspergillus fumigatus AF293
Aspergillus flavus [14] = assay: Antifungal activity against Aspergillus flavus NRRL3357
Aspergillus fumigatus [15] = assay: Growth inhibition of wild type Aspergillus fumigatus AF293 at 0.1 mM after 4 days; details: AF293, 96 h
Aspergillus fumigatus [16] = assay: Growth inhibition of wild type Aspergillus fumigatus AF293 at 0.2 mM after 4 days; details: AF293, 96 h
Aspergillus fumigatus [17] = assay: Growth inhibition of wild type Aspergillus fumigatus AF293 at 0.4 mM after 4 days; details: AF293, 96 h
Aspergillus fumigatus [18] = assay: Fungicidal activity against wild type Aspergillus fumigatus AF293 assessed as radial growth on potato dextrose agar plate at 0.1 mM after 4 days
Saccharomyces cerevisiae [19] = assay: Antifungal activity against Saccharomyces cerevisiae bck1delta deletion mutant assessed as cell number at 1.6 mM after 48 hrs
Saccharomyces cerevisiae [20] = assay: Antifungal activity against Saccharomyces cerevisiae bck1delta deletion mutant assessed as cell number at 3.2 mM after 48 hrs
Aspergillus fumigatus [21] = assay: Growth inhibition of wild type Aspergillus fumigatus AF293 at 0.8 mM after 4 days; details: AF293, 96 h
Aspergillus fumigatus [22] = assay: Growth inhibition of wild type Aspergillus fumigatus AF293 at 1.6 mM after 4 days; details: AF293, 96 h
Aspergillus fumigatus [23] = assay: Growth inhibition of wild type Aspergillus fumigatus AF293 at 3.2 mM after 4 days; details: AF293, 96 h
Aspergillus fumigatus [24] = assay: Growth inhibition of wild type Aspergillus fumigatus AF293 at 6.4 mM after 4 days; details: AF293, 96 h
Aspergillus fumigatus [25] = assay: Fungicidal activity against wild type Aspergillus fumigatus AF293 assessed as radial growth on potato dextrose agar plate at 0.2 mM after 4 days
Aspergillus fumigatus [26] = assay: Fungicidal activity against wild type Aspergillus fumigatus AF293 assessed as radial growth on potato dextrose agar plate at 0.4 mM after 4 days
Aspergillus fumigatus [27] = assay: Fungicidal activity against wild type Aspergillus fumigatus AF293 assessed as radial growth on potato dextrose agar plate at 0.8 mM after 4 days
Aspergillus fumigatus [28] = assay: Fungicidal activity against wild type Aspergillus fumigatus AF293 assessed as radial growth on potato dextrose agar plate at 1.6 mM after 4 days
Aspergillus fumigatus [29] = assay: Fungicidal activity against wild type Aspergillus fumigatus AF293 assessed as radial growth on potato dextrose agar plate at 3.2 mM after 4 days
Aspergillus fumigatus [30] = assay: Fungicidal activity against wild type Aspergillus fumigatus AF293 assessed as radial growth on potato dextrose agar plate at 6.4 mM after 4 days
Aspergillus flavus [31] = assay: Growth inhibition of wild type Aspergillus flavus NRRL3357 at 0.1 mM after 4 days; details: NRRL3357, 96 h
Aspergillus flavus [32] = assay: Growth inhibition of wild type Aspergillus flavus NRRL3357 at 0.2 mM after 4 days; details: NRRL3357, 96 h
Aspergillus flavus [33] = assay: Growth inhibition of wild type Aspergillus flavus NRRL3357 at 0.4 mM after 4 days; details: NRRL3357, 96 h
Aspergillus flavus [34] = assay: Growth inhibition of wild type Aspergillus flavus NRRL3357 at 0.8 mM after 4 days; details: NRRL3357, 96 h
Aspergillus flavus [35] = assay: Growth inhibition of wild type Aspergillus flavus NRRL3357 at 1.6 mM after 4 days; details: NRRL3357, 96 h
Aspergillus flavus [36] = assay: Growth inhibition of wild type Aspergillus flavus NRRL3357 at 3.2 mM after 4 days; details: NRRL3357, 96 h
Aspergillus flavus [37] = assay: Growth inhibition of wild type Aspergillus flavus NRRL3357 at 6.4 mM after 4 days; details: NRRL3357, 96 h
Aspergillus flavus [38] = assay: Fungicidal activity against wild type Aspergillus flavus NRRL3357 assessed as radial growth on potato dextrose agar plate at 0.1 mM after 4 days
Aspergillus flavus [39] = assay: Fungicidal activity against wild type Aspergillus flavus NRRL3357 assessed as radial growth on potato dextrose agar plate at 0.2 mM after 4 days
Aspergillus flavus [40] = assay: Fungicidal activity against wild type Aspergillus flavus NRRL3357 assessed as radial growth on potato dextrose agar plate at 0.4 mM after 4 days
Aspergillus flavus [41] = assay: Fungicidal activity against wild type Aspergillus flavus NRRL3357 assessed as radial growth on potato dextrose agar plate at 0.8 mM after 4 days
Aspergillus flavus [42] = assay: Fungicidal activity against wild type Aspergillus flavus NRRL3357 assessed as radial growth on potato dextrose agar plate at 1.6 mM after 4 days
Aspergillus flavus [43] = assay: Fungicidal activity against wild type Aspergillus flavus NRRL3357 assessed as radial growth on potato dextrose agar plate at 3.2 mM after 4 days
Aspergillus flavus [44] = assay: Fungicidal activity against wild type Aspergillus flavus NRRL3357 assessed as radial growth on potato dextrose agar plate at 6.4 mM after 4 days

CCCCCCCCCCOC(=O)CCc1ccc(O)c(OC)c1 [DIHYDROFERULIC ACID DECYL ESTER]
inhibition at 5000 µM (Saccharomyces cerevisiae [1]): 2.8%

CCOC(=O)CCc1ccc(O)c(OC)c1 [DIHYDROFERULIC ACID ETHYL ESTER]
MIC50 (Saccharomyces cerevisiae [2]): 4 mM (≈ 897 µg/mL) | MIC90 (Saccharomyces cerevisiae [2]): > 6.4 mM | inhibition at 5000 µM (Saccharomyces cerevisiae [1]): 98.7% | inhibition at 6400 µM (Saccharomyces cerevisiae [3]): 87%

COC(=O)CCc1ccc(O)c(OC)c1 [DIHYDROFERULIC ACID METHYL ESTER]
MIC50 (Saccharomyces cerevisiae [2]): 2.1 mM (≈ 441 µg/mL) | MIC90 (Saccharomyces cerevisiae [2]): 5.6 mM (≈ 1180 µg/mL) | inhibition at 5000 µM (Saccharomyces cerevisiae [1]): 100%

CCCCCCCCOC(=O)CCc1ccc(O)c(OC)c1 [DIHYDROFERULIC ACID OCTYL ESTER]
inhibition at 5000 µM (Saccharomyces cerevisiae [1]): 6.2%

CCCOC(=O)CCc1ccc(O)c(OC)c1 [DIHYDROFERULIC ACID PROPYL ESTER]
MIC50 (Saccharomyces cerevisiae [2]): 1.5 mM (≈ 357 µg/mL) | MIC90 (Saccharomyces cerevisiae [2]): 4.5 mM (≈ 1070 µg/mL) | inhibition at 5000 µM (Saccharomyces cerevisiae [1]): 99.4% | inhibition at 800 µM (Saccharomyces cerevisiae [4]): 32.7% | inhibition at 1600 µM (Saccharomyces cerevisiae [5]): 57.4% | inhibition at 3200 µM (Saccharomyces cerevisiae [6]): 99.3% | inhibition at 6400 µM (Saccharomyces cerevisiae [3]): 100% | Activity (Saccharomyces cerevisiae [7]): 2.99 | Activity (Saccharomyces cerevisiae [8]): 1.89 | Activity (Saccharomyces cerevisiae [9]): 0.03 | Activity (Saccharomyces cerevisiae [10]): 0 | inhibition at 3200 µM (Saccharomyces cerevisiae [11]): 76.8% | inhibition at 3200 µM (Saccharomyces cerevisiae [12]): 93% | MIC50 (Aspergillus fumigatus [13]): 2.1 mM (≈ 500 µg/mL) | MIC50 (Aspergillus flavus [14]): 2.9 mM (≈ 691 µg/mL) | inhibition at 100 µM (Aspergillus fumigatus [15]): 0% | inhibition at 200 µM (Aspergillus fumigatus [16]): 2.2% | inhibition at 400 µM (Aspergillus fumigatus [17]): 10.7% | Activity (Aspergillus fumigatus [18]): 4.7 cm | Activity (Saccharomyces cerevisiae [19]): 1.07 | Activity (Saccharomyces cerevisiae [20]): 0.32 | inhibition at 800 µM (Aspergillus fumigatus [21]): 17.1% | inhibition at 1600 µM (Aspergillus fumigatus [22]): 42.6% | inhibition at 3200 µM (Aspergillus fumigatus [23]): 78.8% | inhibition at 6400 µM (Aspergillus fumigatus [24]): 100% | Activity (Aspergillus fumigatus [25]): 4.6 cm | Activity (Aspergillus fumigatus [26]): 4.2 cm | Activity (Aspergillus fumigatus [27]): 3.9 cm | Activity (Aspergillus fumigatus [28]): 2.7 cm | Activity (Aspergillus fumigatus [29]): 1 cm | Activity (Aspergillus fumigatus [30]): 0 cm | inhibition at 100 µM (Aspergillus flavus [31]): 0% | inhibition at 200 µM (Aspergillus flavus [32]): 3.2% | inhibition at 400 µM (Aspergillus flavus [33]): 6.3% | inhibition at 800 µM (Aspergillus flavus [34]): 12.5% | inhibition at 1600 µM (Aspergillus flavus [35]): 28.2% | inhibition at 3200 µM (Aspergillus flavus [36]): 53.2% | inhibition at 6400 µM (Aspergillus flavus [37]): 100% | Activity (Aspergillus flavus [38]): 3.2 cm | Activity (Aspergillus flavus [39]): 3.1 cm | Activity (Aspergillus flavus [40]): 3 cm | Activity (Aspergillus flavus [41]): 2.8 cm | Activity (Aspergillus flavus [42]): 2.3 cm | Activity (Aspergillus flavus [43]): 1.5 cm | Activity (Aspergillus flavus [44]): 0 cm

COc1cc(CCC(=O)O)ccc1O [DIHYDROFERULIC ACID]
MIC50 (Saccharomyces cerevisiae [2]): 6.4 mM (≈ 1260 µg/mL) | inhibition at 5000 µM (Saccharomyces cerevisiae [1]): 6.4%

CCCCCCOC(=O)CCc1ccc(O)c(OC)c1 [HEXYLHYDROFERULATE]
inhibition at 5000 µM (Saccharomyces cerevisiae [1]): 18.8% | inhibition at 800 µM (Saccharomyces cerevisiae [4]): 18.7% | inhibition at 1600 µM (Saccharomyces cerevisiae [5]): 38.3% | inhibition at 3200 µM (Saccharomyces cerevisiae [6]): 77.5% | inhibition at 6400 µM (Saccharomyces cerevisiae [3]): 93.7% | Activity (Saccharomyces cerevisiae [7]): 3.61 | Activity (Saccharomyces cerevisiae [8]): 2.74 | Activity (Saccharomyces cerevisiae [9]): 1 | Activity (Saccharomyces cerevisiae [10]): 0.28
